Results from patent publication US12707555B2, “Low-temperature dielectric barrier discharge devices” (The Trustees of Princeton University, priority 2022, dated 2026).

Experiments:
[1] = system: E. coli; assay: Disinfection of inoculated coverslips with flex-DBD in conjunction with 3% H2O2 solution (strain not stated at the result); format: cell-based; details: H2O2 with only UV radiation from flex-DBD (UV filter); after the first 30 s
Experimental: Pieces of material were disinfected by soaking for 5 min in a 70% solution of isopropyl alcohol then dried thoroughly for at least 30 min. […] An inoculated glass coverslip was placed on top of the solution with the bacteria in contact with the solution. At the end of each treatment, the coverslip and the cloth were dropped into a centrifuge tube with 7.5 ml of LB solution. The same recovery and plating procedure was used in all experiments. […] To block all the output from the plasma except light, a thin film filter transparent down to 190 nm was placed between the DBD and H2O2. […] When possible, ImageJ (1.53c) software was used to count CFUs, otherwise the counting was done visually. […] All the experiments were performed in triplicates of samples and plates. Statistical significance between pairs of treatments was evaluated using repeated measures ANOVA.

[2] = system: bacterial load; details: cited from earlier work
[3] = system: E. coli 10-beta; assay: Quantitative disinfection of bacteria dried on glass coverslips (CFU count, log reduction); format: cell-based; details: 3% H2O2 alone, flex-DBD off; R=0.97
Experimental: (§1) To quantify disinfection, bacteria (E. coli 10-beta, Standard E. coli AMS 198 or OP50-GFP) were inoculated on glass coverslips (25 mm diameter). Four droplets of 5 μl each (20 μl) of the bacterial culture (starting concentration 10^8 CFU/ml) were placed onto each coverslip and allowed to dry for approximately 40 min. The slides with dry bacterial culture were then placed onto the flex-DBD with the inoculated side directly in contact with the discharge. The coverslips were treated for 10, 30, 90, and 270 s. At the end of the treatment time, the treated coverslip was placed in a centrifuge tube with 7.5 ml LB, enough to cover the coverslip. The tubes were vortexed on a medium setting for 20 s to recover the bacteria from the treated surface but not damage the cell membrane. The resulting bacterial suspension was spread on LB-agar plates and incubated for 24 h. Cultures were then counted and the number used to calculate the logarithmic reductions of bacterial concentration. […] Pieces of material were disinfected by soaking for 5 min in a 70% solution of isopropyl alcohol then dried thoroughly for at least 30 min. […] An inoculated glass coverslip was placed on top of the solution with the bacteria in contact with the solution. […] Statistical significance between pairs of treatments was evaluated using repeated measures ANOVA.

[4] = system: E. coli AMS 198 (ATCC-11229); assay: as above; format: cell-based; details: 3% H2O2 alone, flex-DBD off; R=0.947
Experimental: as §1

OO [H2O2, hydrogen peroxide]
time for 1 log10 reduction, D [1]: > 250 s
reduction ([2]; H2O2 droplets added into a corona discharge): 6 log10
reduction in the bacterial load ([2]; H2O2 vapor added to the plasma effluent): greater than 6 log10
time for 1 log10 reduction, D [3]: 139±5 s
time for 1 log10 reduction, D [4]: 135±5 s
